The assay deals with PDE5 (Homo sapiens, UniProt O76074). As to the kind of experiment: cGMP PDE activity. In kind it is biochemical.

The values below come from publication PMC3151326 (2011).

Usually IC50 stands for the midpoint of a concentration-inhibition curve. Read a low IC50 as greater potency in that assay.

With `CSc1ccc(/C=C2/C(C)=C(CC(=O)O)c3cc(F)ccc32)cc1` [SS, sulindac sulfide], the concentration for half-maximal inhibition (IC50) is around 100 µM.
